Consider four molecules from patent publication US20120088841A1, “COMPOSITION AND A METHOD OF TREATING CNS DISORDERS AND HYPERPIGMENTATION” (priority 2010, published 2012).

Data set [1] has as its target Mushroom Tyrosinase enzyme. As to the kind of experiment: Tyrosinase inhibition. As to conditions: 40 units Mushroom Tyrosinase, 0.7 mM L-Tyrosine disodium, 37° C. The data set is classed as biochemical. An excerpt:
Pigmentation is a multistep process critically dependent on the functional integrity of tyrosinase, the rate-limiting enzyme in melanin synthesis. Biosynthesis of melanin is initiated by the catalytic oxidation of tyrosine to 3, 4 dihydroxy phenylalanine (dopa) by tyrosinase. Subsequent reactions happen spontaneously eventually resulting in the synthesis of melanin. Under in vitro conditions, tyrosinase enzyme acts on L-Tyrosine forming a pink colored complex. This pink color intensity formed during the reaction is quenched in the presence of the inhibitor. The assay is performed in a 96 well clear microtitre plate. The compound hydroxychavicol, crude betel leaf extract and the reference standard in suitable vehicle (PBS or 0.2% DMSO) is pre incubated with 40 units of Mushroom Tyrosinase enzyme at 37° C. for 10 minutes. The reaction is initiated by adding 0.7 mM L-Tyrosine disodium and the absorbance is read after 10 minutes of incubation at 37° C. in FluostarOptima microplate reader at 492 nm. The dose dependent inhibitory activity of samples is calculated and the results are expressed as IC50 values using Graphpad prism software.

Data set [2] concerns B16F1 mouse melanoma cells. In words: Inhibition of α-MSH induced melanogenesis in B16F1 mouse melanoma cell line. The data set is classed as cell-based. The note with it: B16-F1, 216 h, 0.6 nM MSH, 9 days treatment, read-out: Inhibition of MSH induced Melanin IC50. Here is the method:
Melanin synthesis can be directly studied in live animal cells. B16F1 mouse melanoma cells were seeded in a 6 well microtiter plate at a seeding density of 5000 cells per well in 2 ml DMEM medium per well. After 24 hours of incubation in a CO2 incubator, melanin production is induced by 0.6 nM […] by replacing the medium with medium containing […]. The cells were then treated with the compound hydroxychavicol, crude betel leaf extract and the reference standard over a period of 9 days with renewal of […] containing medium and sample at regular intervals of 3 days. Control wells were maintained without sample treatment and only with the vehicle used for sample preparation. After the incubation period, the medium was removed and the cells were scraped and washed in PBS. Thereafter, melanin was extracted by 1N NaOH in boiling water bath for 5 minutes. The absorbance of the melanin extract was read at 405 nm in a microplate reader. The inhibitory effect of the samples is calculated based on the decrease of melanin formation. The dose dependent inhibitory activity of samples is calculated and the results are expressed as IC50 values using Graphpad prism software.

Another data set relates to TNF alpha. In words: TNF alpha inhibition invitro (comparative data). The data set is classed as cell-based. As to conditions: read-out: TNF alpha inhibition (IC50 μg/ml). The source says:
(§1) The results are as tabulated below in table 2.

Data set [3] in a line: ORAC value (comparative data). The note with it: invitro; higher is better.
From the text: as §1

Data set [4] has as its system Reduced glutathione (GSH). As to the kind of experiment: Estimation of reduced glutathione in brain of ICV STZ rats. The data set is classed as in vivo. The note with it: for GSH: brain homogenate, ICV STZ rats (STZ Control 223.21 ± 6.08). Here is the method:
(§2) The injection was repeated on day 3.
Reduced glutathione (GSH) in the brain was estimated according to the method described by Ellman (1959). 1 ml supernatant was precipitated with 1 ml of 4% sulfosalicylic acid and cold digested at 4° C. for 1 h. The samples were centrifuged at 1200×g for 15 min at 4° C. To 1 ml of this supernatant, 2.7 ml of phosphate buffer (0.1 M, pH 8) and 0.2 ml of 5,5′-dithiobis-(2-nitrobenzoic acid) (DTNB) were added. The yellow colour developed was read immediately at 412 nm using spectrophotometer. The results were calculated using the molar extinction coefficient of chromophore (1.36×104 M−1 cm−1) and expressed as a percentage of the control.

The test system of a further data set is IFN-γ. As to the kind of experiment: Estimation of intracellular cytokine IFN-γ in CD3+ T cells. The data set is classed as in vivo, rats. The procedure: as §2
Magnetic-bead Assisted Cell Sorting (MACS) separated the CD3+ T cells that were then permeabilised with 500 μl of FACS permeabilising solution (Becton Dickinson) for 10 min at room temperature. With this technique, specific cells that have antibody-coated micro beads are separated under a strong magnetic field magnetically from the whole cell suspension according to their cell-surface antigen. After centrifugation, cells were incubated with anti-rat IFN-γ-PE for 30 min in the dark at room temperature. After washing in PBS, cells were fixed in […] of 1% formaldehyde PBS. A total of 10,000-gated events were acquired in on a FACS BD LSR II flow cytometer (Bani et al., 2005, 2006) and analysis was done on flow cytometer using Cell Quest Pro software (BD Biosciences).

A further data set concerns Malondialdehyde (MDA). In words: Measurement of lipid peroxidation (MDA) in brain of ICV STZ rats. As to conditions: for MDA (LP): brain homogenate, ICV STZ rats (STZ Control 415.21 ± 10.07).
The next data set relates to Balb/C mice. As to conditions: mouse, in vivo, po, 1000 mg/kg.
For a further data set, the system named is CD19+ cell population. In words: Flow cytometric evaluation of cell-surface marker CD19+ in peripheral blood lymphocytes. The data set is classed as in vivo, rats. Here is the method:
as §2
(§3) CD3 monoclonal antibody that reacts with the CD3 differentiation antigen expressed on MHC class I T cytotoxic cells as well as MHC class II T helper cells, was used for the determination of activated T cell populations in the blood and CD19 monoclonal antibody that reacts with CD19 antigen expressed on B cells was used for the estimation of B cell population. Tubes were incubated in dark for 30 min at room temperature. Subsequently, 2 ml of 1×FACS lyses solution was added at room temperature with gentle mixing and these samples were then spinned at (300-400×g). The supernatant was aspirated and samples were given 3 washings of phosphate buffer saline (pH 7.4). The resulting stained cell pellet was resuspended in 500 μl of phosphate buffer saline and was run on a flow cytometer. Acquisition and the analysis were done directly on flow cytometer using Cell Quest Pro software (BD Biosciences) (Bani et al., 2005, 2006).
(A flow cytometer gives signals particle by particle.)

The subject of another data set is ICV STZ treated rats. In words: Single trial passive avoidance test after ICV injection of STZ. The data set is classed as in vivo. As to conditions: for initial latency: day 19, ICV STZ rats; for mean retention latency: day 20, ICV STZ rats (STZ Control 173±28 s). Here is the method:
as §2
Memory retention deficit was evaluated by a step through passive avoidance apparatus according to the method previously described by Mojard et al. (2007) on days 19th and 20th after 1st injection of STZ. On the acquisition trial, each rat was placed in the lighted chamber and after 60 s of habituation period, the guillotine door separating the lighted and dark chamber was opened, and the initial latency (IL) to enter the dark chamber was recorded. Immediately after the rat entered the dark chamber, the guillotine door was closed and an electric foot shock (75 V, 0.2 mA, 50 Hz) was delivered to the floor grids for 3 s. Five seconds later, the rat was removed from the dark chamber and returned to its home cage. Twenty-four hours later, the retention latency (RL) time was measured in the same way as in the acquisition trial, but foot shock was not delivered, and the latency time was recorded to a maximum of 600 s.

A further data set deals with CD3+ cell population. In words: Flow cytometric evaluation of cell-surface marker CD3+ in peripheral blood lymphocytes. The data set is classed as in vivo, rats. The procedure:
as §2, §3

In brackets after ≈: the same amount, converted by molar mass. Several values for one entry are separate records, joined by “and”; a condition that tells them apart may be missing. Equal values may be shown once. Read-outs that look alike come from different tables or passages of the source. Marks after values point to notes of the source that are not given here.

Experimental for Balb/C mice: Three female Balb/C mice, fasted 3-4 h prior to the test, were used for each step and observed individually after dosing at least once during the first 30 min, and periodically during the first 24 h, with special attention given during the first 4 h, and daily thereafter, for a total of 14 days.

Regarding `O=C1O[C@H]([C@@H](O)CO)C(O)=C1O` [Ascorbic acid, reference compound], the “Tyrosinase inhibition IC50” value in data set [1] is reported as “IC50—9.33 μg/ml”. Further, in data set [2], the IC50 was 25 µg/mL (≈ 142 µM).
For the molecule `C=CCc1ccc(O)c(OC)c1` [Eugenol], the IC50 with TNF alpha (invitro) worked out at 114 µg/mL (≈ 694 µM). In addition, in data set [3], the “ORAC value (μmol trolox equivalents/g)” value is given as 13921 μmol trolox equivalents/g.
Turning to `C=CCc1ccc(O)c(O)c1` [HC, Hydroxychavicol], the IC50 turned out to be 88.7 µg/mL (≈ 590 µM) with TNF alpha and 1.3 µg/mL (≈ 8.66 µM) in [2]. The “GSH percentage activity against STZ Control group (stimulation)” value is “(61.03↑)* %” in [4] (HC 0.5 mg/kg p.o.), “(62.52↑)* %” in [4] (HC 1.0 mg/kg p.o.), “(66.52↑)* %” in data set [4] (HC 2.0 mg/kg p.o.) and “(67.04↑)* %” in data set [4] (HC 4.0 mg/kg p.o.). The GSH was 359.44 ± 5.47 µg/g in [4] (HC 0.5 mg/kg p.o.); 362.78 ± 6.24 µg/g in data set [4] (HC 1.0 mg/kg p.o.); 371.69 ± 6.17 µg/g and 371.69 ± 6.117 µg/g in [4] (HC 2.0 mg/kg p.o.); 372.87 ± 3.18 µg/g in data set [4] (HC 4.0 mg/kg p.o.). For the same molecule, the entries for the “expression of IFN-γ in CD3+ T cells” value in the data set on IFN-γ (HC 2 mg/kg p.o. (STZ Control 18.18±0.97%)) and in the data set with IFN-γ (HC 4 mg/kg p.o. (STZ Control 18.18±0.97%)) were 12.08±0.21% and 11.91±0.87%, respectively. The “MDA (LP) percentage activity against STZ Control group (suppression)” value in the data set on Malondialdehyde (MDA) (HC 0.5 mg/kg p.o.) is given as “(27.47↓)* %”; with Malondialdehyde (MDA) (HC 1.0 mg/kg p.o.) it was “(39.26↓)* %”; in the data set on Malondialdehyde (MDA) (HC 2.0 mg/kg p.o.) it was “(42.87↓)* %”; in the data set with Malondialdehyde (MDA) (HC 4.0 mg/kg p.o.), “(46.85↓)* %”. The “MDA (LP)” value in the data set with Malondialdehyde (MDA) (HC 0.5 mg/kg p.o.) came to 301.15 ± 6.34 nmol/mg; in the data set with Malondialdehyde (MDA) (HC 1.0 mg/kg p.o.), 252.18 ± 4.08 nmol/mg; in the data set on Malondialdehyde (MDA) (HC 2.0 mg/kg p.o.), 237.19 ± 3.44 nmol/mg; in the data set on Malondialdehyde (MDA) (HC 4.0 mg/kg p.o.) it was 220.68 ± 4.32 nmol/mg. Moreover, the “untoward symptom or mortality, general behaviour” value in the data set with Balb/C mice is reported as “No untoward symptom or any mortality”. Further, the “mean percentage of CD19+ cells in the lymphocyte population” value was 21.43±1.39% in the data set on CD19+ cell population (HC 0.5 mg/kg p.o. (STZ Control 27.08±2.77%)), 17.08±2.09% in the data set with CD19+ cell population (HC 1 mg/kg p.o. (STZ Control 27.08±2.77%)), 16.97±1.88% in the data set on CD19+ cell population (HC 2 mg/kg p.o. (STZ Control 27.08±2.77%)) and 16.01±1.07% in the data set with CD19+ cell population (HC 4 mg/kg p.o. (STZ Control 27.08±2.77%)). Besides, the initial latency in the data set on ICV STZ treated rats (HC 0.5 mg/kg p.o.) came out at 12.21 ± 1.42 s; in the data set on ICV STZ treated rats (HC 1 mg/kg p.o.) it was 17.33 ± 2.6 s; in the data set with ICV STZ treated rats (HC 2 mg/kg p.o.), 15.92 ± 1.09 s; in the data set on ICV STZ treated rats (HC 4 mg/kg p.o.) it was 18.21 ± 2.96 s. For the same molecule, the results for the mean retention latency in the data set on ICV STZ treated rats (HC 1 mg/kg p.o.) and with ICV STZ treated rats (HC 2 mg/kg p.o.) were 291.87 ± 25.66 s and 301.09 ± 13.67 s, respectively. The “mean percentage of CD3+ cells in the lymphocyte population” value in the data set with CD3+ cell population (HC 0.5 mg/kg p.o. (STZ Control 62.21±4.65%)) worked out at 51.19±1.78%; with CD3+ cell population (HC 2 mg/kg p.o. (STZ Control 62.21±4.65%)) it was 45.28±3.43%; in the data set with CD3+ cell population (HC 4 mg/kg p.o. (STZ Control 62.21±4.65%)), 44.49±4.55%.
For `CC=Cc1ccc(O)c(OC)c1` [Isoeugenol], the IC50 in the data set on TNF alpha (invitro) was 515 µg/mL (≈ 3140 µM). Also, the “ORAC value (μmol trolox equivalents/g)” value in data set [3] was determined as 15248 μmol trolox equivalents/g.
